Laboratory results: BindingDB's records for doi:10.1111/j.1747-0285.2007.00608.x (National Institute of Pharmaceutical Education and Research, 2008)

Target: T1, UDP-3-O-acyl-N-acetylglucosamine deacetylase (Pseudomonas aeruginosa (strain ATCC 15692 / DSM 22644 / CIP 104116 / JCM 14847 / LMG 12228 / 1C / PRS 101 / PAO1), UniProt P47205)
T1 sequence (P47205 whole entry): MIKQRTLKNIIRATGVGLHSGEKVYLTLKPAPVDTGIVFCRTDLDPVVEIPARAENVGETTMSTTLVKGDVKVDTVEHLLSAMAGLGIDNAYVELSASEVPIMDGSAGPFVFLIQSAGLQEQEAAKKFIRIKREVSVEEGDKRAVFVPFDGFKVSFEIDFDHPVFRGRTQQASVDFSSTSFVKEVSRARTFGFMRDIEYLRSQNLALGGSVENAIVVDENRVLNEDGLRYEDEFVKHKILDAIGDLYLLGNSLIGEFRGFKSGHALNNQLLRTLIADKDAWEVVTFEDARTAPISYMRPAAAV
Experiment: Inhibition Assay
Description: The LpxC inhibitors were used as the reference for development of flexible alignment-based pharamcophore, pharamcophore mapping study.

An IC50 of 4.9 µM was found for `CN(C)c1ccc(C2=N[C@@H](C(=O)NO)CO2)cc1` [CS273] in this work.

An IC50 of 0.5 µM was found for `CCCc1cc(C2=N[C@@H](C(=O)NO)CO2)cc(OC(F)(F)F)c1OC` [LpxC Inhibitor, L1] in this work.

An IC50 of 0.56 µM was found for `O=C(NO)[C@H]1COC(c2ccc(COc3cccc([N+](=O)[O-])c3)cc2)=N1` [LpxC Inhibitor, L2] in this work.

An IC50 of 1.2 µM was found for `Cc1cc(C2=N[C@@H](C(=O)NO)CO2)ccc1F` [LpxC Inhibitor, L3] in this work.

An IC50 of 2.2 µM was found for `C=CCOc1ccc(C2=N[C@@H](C(=O)NO)CO2)cc1C(F)(F)F` [LpxC Inhibitor, L4] in this work.

An IC50 of 13 µM was found for `O=C(N[C@@H](CO)C(=O)NO)c1n[nH]c2ccccc12` [LpxC Inhibitor, L5] in this work.

An IC50 of 0.25 µM was found for `O=C(NO)[C@H]1COC(c2ccc(OCc3cccc(F)c3)c(C(F)(F)F)c2)=N1` [LpxC Inhibitor, L6] in this work.

An IC50 of 25 µM was found for `O=C(NO)[C@H]1COC(c2cc(F)cc(C(F)(F)F)c2)=N1` [LpxC Inhibitor, L7] in this work.

An IC50 of 5.5 µM was found for `O=C(NO)[C@H]1COC(c2n[nH]c3ccccc23)=N1` [LpxC Inhibitor, L9] in this work.

An IC50 of 1 µM was found for `CCOc1cc(C2=N[C@@H](C(=O)NO)CO2)ccc1F` [LpxC Inhibitor, L10] in this work.

An IC50 of 10 µM was found for `CCCCn1nc(C2=N[C@@H](C(=O)NO)CO2)c2ccccc21` [LpxC Inhibitor, L11] in this work.

An IC50 of 12 µM was found for `CCCCn1nc2ccccc2c1C1=N[C@@H](C(=O)NO)CO1` [LpxC Inhibitor, L12] in this work.

An IC50 greater than 50 µM was found for `CCCc1cc(C(=O)N[C@@H](CO)C(=O)NO)cc(OC(C)(C)C)c1OC` [LpxC Inhibitor, L13] in this work.

An IC50 of 17.8 µM was found for `CCCc1cc(C2=N[C@H](C(=O)NO)CS2)cc(OC(F)(F)F)c1OC` [LpxC Inhibitor, L14] in this work.

An IC50 of 0.16 µM was found for `COc1ccc(C2=N[C@H](C(=O)NO)CO2)cc1OC(F)(F)F` [LpxC Inhibitor, L15] in this work.

An IC50 of 1 µM was found for `O=C(NO)[C@@H]1COC(c2ccc(OCc3cccc([N+](=O)[O-])c3)cc2)=N1` [LpxC Inhibitor, L16] in this work.

An IC50 greater than 30 µM was found for `O=C(NO)[C@@H]1COC(c2ccc(O)cc2)=N1` [LpxC Inhibitor, L17] in this work.

An IC50 of 38.5 µM was found for `Cc1ccc(C2=N[C@H](C(=O)NO)CS2)cc1` [LpxC Inhibitor, L18] in this work.
